This note sets out measurements from ChEMBL document CHEMBL1201862, “PubChem BioAssay data set” (2004).

Test systems include A549; CAKI-1; COLO 205; EKVX; HOP-62; HOP-92; HT-29; IGROV-1; NCI-H226; NCI-H23; NCI-H460; NCI/ADR-RES; OVCAR-4; RXF 393; SF-268; SK-MEL-2; SR; SW-620; T47D; TK-10.
Common to all, as to experiment: inhibition of tumour cell growth, NCI panel, 48 h

Molecules are shown by their SMILES.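 Growth conditions: 96-well plates. Treatment: test compound, 48 hours, 5 concentrations. Analysis: linear interpolation between bracketing concentrations; unreached endpoints set to highest concentration. GI50 marks 50% less growth.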 Activity calls are given as the source filed them. Rule as the data show it: active = GI50 up to about 1.1 µM and inactive = higher.

With `COC(=O)Cn1c(=O)oc2nc(-c3ccccc3)cc(C(F)(F)F)c21`, the GI50 with A549 is 82 µM (inactive); in the test with CAKI-1 it was > 100 µM (inactive); with COLO 205 it was > 100 µM (inactive); with EKVX, 70.6 µM (inactive); in the test on HOP-62 it was > 100 µM (inactive); in the test on HOP-92, 27.2 µM (inactive). Further, the GI50 was 32.8 µM (inactive) in the test on HT-29; 66.1 µM (inactive) with IGROV-1; 35.8 µM (inactive) in the test with NCI-H226; > 100 µM (inactive) in the test with NCI-H23; > 100 µM (inactive) in the test on NCI-H460; 23.8 µM (inactive) with NCI/ADR-RES. Moreover, the GI50 with OVCAR-4 is 86.3 µM (inactive); in the test with RXF 393 it was > 100 µM (inactive); in the test with SF-268, > 100 µM (inactive); in the test on SK-MEL-2 it was > 100 µM (inactive); in the test with SR, 62.2 µM (inactive); in the test on SW-620, 73.1 µM (inactive). Further, the GI50 in the test on T47D and in the test with TK-10 was > 100 µM (inactive) throughout.
For `C[n+]1ccn2c3nc4ccccc4nc3c([O-])c(C#N)c21`, the GI50 in the test on A549 is > 29.5 µM (inactive); in the test on CAKI-1, > 100 µM (inactive); in the test with COLO 205 it was > 100 µM (inactive); in the test on EKVX it was > 100 µM (inactive); in the test on HOP-62, > 10 µM (inactive); in the test on HOP-92, > 100 µM (inactive). The GI50 in the test on HT-29 is > 100 µM (inactive); in the test with IGROV-1 it was > 31.4 µM (inactive); in the test with NCI-H226, > 100 µM (inactive); in the test with NCI-H23, > 100 µM (inactive); in the test on NCI-H460, > 10 µM (inactive); with NCI/ADR-RES it was > 34.2 µM (inactive). Further, the GI50 with OVCAR-4 was > 100 µM (inactive); with RXF 393, > 65.9 µM (inactive); in the test with SF-268 it was > 100 µM (inactive); in the test on SK-MEL-2, > 4.65 µM (inactive); in the test with SR, > 100 µM (inactive); in the test with SW-620, > 100 µM (inactive). The GI50 in the test on T47D is > 100 µM (inactive); with TK-10, > 10 µM (inactive).
Consider `CC(=O)OCC1(CNc2nc(N)ncc2C#N)CC(CCc2ccccc2)C1` (stereo not given), for which the GI50 in the test with A549 is 15.5 µM (inactive); in the test on CAKI-1 it was 4 µM (inactive); with COLO 205, 75.3 µM (inactive); in the test with EKVX, 6.01 µM (inactive); with HOP-62, 14.4 µM (inactive); with HOP-92, 2.45 µM (inactive). Besides, the GI50 is > 100 µM (inactive) with HT-29; 21.4 µM (inactive) in the test on IGROV-1; 42 µM (inactive) in the test on NCI-H226; 2.49 µM (inactive) in the test on NCI-H23; 26.8 µM (inactive) with NCI-H460; 10.3 µM (inactive) in the test with NCI/ADR-RES. Besides, the GI50 with OVCAR-4 is > 100 µM (inactive); with RXF 393, 27.5 µM (inactive); in the test on SF-268, > 100 µM (inactive); with SK-MEL-2 it was > 100 µM (inactive); in the test with SR, 4.8 µM (inactive); in the test on SW-620, > 100 µM (inactive). Moreover, the GI50 with T47D is 13.3 µM (inactive); in the test with TK-10 it was > 10 µM (inactive).
As to `CC1OC(O)CC(N(C)C)C1O.CC1OC(O)CCC1O.CCC1CC(O)c2c(O)c3c(c(O)c2C1O)C(=O)c1cccc(O)c1C3=O` (stereo not given), the GI50 in the test on A549 is 0.0313 µM (active); with CAKI-1, 0.0156 µM (active); in the test on COLO 205, 0.0209 µM (active); in the test with EKVX, 0.0281 µM (active); with HOP-62 it was 0.034 µM (active); in the test on HOP-92, 0.01 µM (active). In addition, the GI50 with HT-29 is 0.0126 µM (active); with IGROV-1, 0.0284 µM (active); with NCI-H226, 0.0168 µM (active); in the test with NCI-H23, 0.0301 µM (active); in the test on NCI-H460 it was 0.00486 µM (active); in the test on NCI/ADR-RES it was 0.251 µM (active). Besides, the GI50 in the test on OVCAR-4 is 0.0203 µM (active); in the test on RXF 393 it was 0.0039 µM (active); in the test with SF-268 it was 0.0335 µM (active); in the test with SK-MEL-2 it was 0.0212 µM (active); with SR it was 0.0083 µM (active); in the test with SW-620, 0.014 µM (active). The GI50 in the test on T47D was 0.0242 µM (active); in the test on TK-10, 0.0208 µM (active).
As to `CC1=C(Br)C(=O)c2c(O)ccc(O)c2C1=O`, the GI50 is 1.89 µM (inactive) in the test with A549; 0.282 µM (active) in the test on CAKI-1; 0.187 µM (active) in the test with COLO 205; 2.37 µM (inactive) in the test with EKVX; 0.849 µM (active) in the test with HOP-62; 0.627 µM (active) in the test with HOP-92. The GI50 in the test on HT-29 is 0.336 µM (active); in the test with IGROV-1, 1.59 µM (inactive); in the test with NCI-H226 it was 2.67 µM (inactive); in the test on NCI-H23, 0.938 µM (active); with NCI-H460, 1.26 µM (inactive); in the test on NCI/ADR-RES, 0.555 µM (active). Further, the GI50 in the test on OVCAR-4 was 0.857 µM (active); in the test on RXF 393 it was 1.42 µM (inactive); in the test with SF-268, 1.99 µM (inactive); with SK-MEL-2, 5.83 µM (inactive); in the test on SR, 0.207 µM (active); in the test with SW-620 it was 0.163 µM (active). Moreover, the results for the GI50 with T47D and with TK-10 were 0.412 µM (active) and 1.26 µM (inactive), respectively.
Regarding `O=C(OC1C#CCSCC#C/C=C\1)c1ccc2c(c1)C(=O)c1ccccc1C2=O` (stereo not given), the GI50 was > 100 µM (inactive) in the test with A549; 37.5 µM (inactive) with CAKI-1; 82.2 µM (inactive) in the test with COLO 205; 64.7 µM (inactive) in the test with EKVX; 16.5 µM (inactive) with HOP-62; 2.79 µM (inactive) in the test on HOP-92. Also, the GI50 is > 100 µM (inactive) in the test on HT-29; 34.8 µM (inactive) in the test with IGROV-1; 48.8 µM (inactive) with NCI-H226; 40.7 µM (inactive) in the test on NCI-H23; > 100 µM (inactive) in the test on NCI-H460; 78.9 µM (inactive) in the test with NCI/ADR-RES. In addition, the GI50 with OVCAR-4 was > 100 µM (inactive); in the test on RXF 393 it was 18.4 µM (inactive); in the test with SF-268 it was 21.6 µM (inactive); in the test on SK-MEL-2, 35.8 µM (inactive); with SR it was 25.5 µM (inactive); in the test on SW-620 it was > 100 µM (inactive). For the same compound, the GI50 in the test on T47D is > 100 µM (inactive); in the test with TK-10 it was 27.9 µM (inactive).
Turning to `O=C1CC2(CCNCC2)C(=O)N1N1CCCCC1`, the GI50 with A549, in the test with CAKI-1, in the test with COLO 205, in the test on EKVX, with HOP-62 and with HOP-92 was > 100 µM (inactive) throughout. For the same compound, the GI50 in the test on HT-29, in the test with IGROV-1, in the test on NCI-H226, with NCI-H23, in the test with NCI-H460 and in the test on NCI/ADR-RES was > 100 µM (inactive) in each case. In addition, the GI50 with OVCAR-4, with RXF 393, in the test on SF-268, in the test with SK-MEL-2, in the test with SR and with SW-620 was > 100 µM (inactive) throughout. Besides, the GI50 with T47D and in the test with TK-10 was > 100 µM (inactive) each time.
Take `COC1OC2COC(c3ccccc3)OC2C(O)C1OC(=S)c1ccccc1` (stereo not given): the GI50 with A549 was 0.607 µM (active); in the test with CAKI-1 it was 24.4 µM (inactive); with COLO 205 it was 16.7 µM (inactive); in the test on EKVX, 19.5 µM (inactive); with HOP-62 it was 30.8 µM (inactive); with HOP-92, > 100 µM (inactive). For the same compound, the GI50 in the test on HT-29 is 20.5 µM (inactive); with IGROV-1 it was 32.4 µM (inactive); with NCI-H226, 46.1 µM (inactive); in the test on NCI-H23, 59.7 µM (inactive); in the test on NCI-H460 it was 28.6 µM (inactive); with NCI/ADR-RES it was 36.6 µM (inactive). Further, the GI50 is 73.6 µM (inactive) in the test with OVCAR-4; 41.4 µM (inactive) with RXF 393; > 100 µM (inactive) in the test on SF-268; 53.3 µM (inactive) with SK-MEL-2; 42.9 µM (inactive) with SR; 45.3 µM (inactive) with SW-620. Besides, the GI50 in the test on T47D was 14.9 µM (inactive); in the test on TK-10, 62.5 µM (inactive).
Take `O=C1NC2(CCNCC2)Oc2ccccc21`: the GI50 in the test on A549, in the test on CAKI-1, with COLO 205, in the test on EKVX, in the test with HOP-62 and in the test on HOP-92 was > 100 µM (inactive) in each case. Moreover, the GI50 with HT-29, in the test with IGROV-1, with NCI-H226, with NCI-H23, in the test with NCI-H460 and with NCI/ADR-RES was > 100 µM (inactive) in each case. For the same compound, the GI50 in the test with OVCAR-4 was > 100 µM (inactive); in the test with RXF 393, 64.1 µM (inactive); in the test with SF-268, > 100 µM (inactive); in the test with SK-MEL-2, > 100 µM (inactive); with SR, > 100 µM (inactive); in the test with SW-620, > 100 µM (inactive). The GI50 in the test with T47D and with TK-10 was > 100 µM (inactive) throughout.
Consider `COc1c2occc2c(N)c2ccc(=O)oc12`, for which the GI50 is > 100 µM (inactive) in the test on A549; > 100 µM (inactive) in the test on CAKI-1; > 100 µM (inactive) with COLO 205; 51.9 µM (inactive) in the test on EKVX; > 100 µM (inactive) with HOP-62; > 100 µM (inactive) in the test with HOP-92. The GI50 is > 100 µM (inactive) in the test on HT-29; > 100 µM (inactive) in the test on IGROV-1; 29.5 µM (inactive) in the test on NCI-H226; > 100 µM (inactive) with NCI-H23; > 100 µM (inactive) with NCI-H460; > 100 µM (inactive) in the test with NCI/ADR-RES. Further, the GI50 with OVCAR-4 was > 100 µM (inactive); with RXF 393, 15.3 µM (inactive); with SF-268 it was > 100 µM (inactive); in the test on SK-MEL-2, > 100 µM (inactive); in the test with SR, > 100 µM (inactive); in the test with SW-620, > 100 µM (inactive). The GI50 with T47D and in the test with TK-10 was > 100 µM (inactive) throughout.
